The text below walks through data of patent publication US20260124173A1, “THERAPEUTIC ALKALOID COMPOUNDS” (Sensorium Therapeutics, Inc., priority 2023, published 2026).

Where two headings read alike, the source gives them in different places.

The target in one data set is T1, SERT (Homo sapiens, UniProt P31645).
T1 construct: expressed in transfected cells
Briefly: SERT inhibition assay (Neurotransmitter Transportation Fluorescence assay, stable 5 HTT cells). The class given is cell-based. On the procedure:
SERT inhibition can be measured using a Neurotransmitter Transportation Fluorescence assay. Briefly, stable 5 HTT cells were prepared in a 384 microwell plate. Compounds were prepared in assay buffer (20 mM HEPES, 0.1% BSA). The compounds were added to the plated cells and incubated for 30 minutes at 37° C. 25 μL of dye solution (Molecular Devices Neurotransmitter Transporter Uptake Assay Kit) is added per well and incubated for 30 minutes at 37° C. The plates are then read on a plate reader.

A short description of data set [1]: Intestinal S9 metabolic stability, rat. Type of data set: in vitro ADME. The method, then:
(§1) A master solution was prepared according to the Table B2 below.
(§2) Add 222.5 μL of master solution and 25 μL of 10 mM NADPH solution to the incubation plates. Pre-warm for 10 min. The reaction was started with the addition of 2.5 μL of 100 μM control compound or test compound solutions. Verapamil, Midazolam and Testosterone were used as positive control in this study. The final concentration of control compounds and test compounds was 1 μM. Aliquots of 25 μL were taken from the reaction solution at 0.5, 5, 15, 30, 45 and 60 minutes. The reaction was stopped by the addition of 5 volumes of cold acetonitrile with IS (100 nM alprazolam, 200 nM caffeine and 100 nM tolbutamide). Samples were centrifuged at 3, 220 g for 30 minutes. Aliquot of 100 μL of the supernatant was mixed with 100 μL of ultra-pure H2O and then used for LC-MS/MS analysis.
(§3) All calculations were carried out using Microsoft Excel. Peak areas were determined from extracted ion chromatograms. The slope value, k, was determined by linear regression of the natural logarithm of the remaining percentage of the parent drug vs. incubation time curve. The in vitro half-life (in vitro t1/2) was determined from the slope value:
(§4) Conversion of the in vitro t1/2 (min) into the in vitro intrinsic clearance (in vitro CLint, in uL/min/mg protein) was done using the following equation (mean of duplicate determinations): […]

The format of data set [2] is in vitro ADME, dog. On the procedure: as §1, §2, §3, §4
Data set [3] is described as follows: Intestinal S9 metabolic stability, human. The class given is in vitro ADME. On the procedure:
as §1, §2, §3, §4
The metabolic stability of Compound 243 was tested in human, monkey, dog and rat (2 replicate measurement). For comparison, verapamil was tested in human and monkey (2 replicates), midazolam was tested in dog (2 replicates), and testosterone was tested in rat (2 replicates).

For data set [4] the following is noted: in vivo; cited from earlier work.

T1 sequence (P31645 whole entry, species assumed): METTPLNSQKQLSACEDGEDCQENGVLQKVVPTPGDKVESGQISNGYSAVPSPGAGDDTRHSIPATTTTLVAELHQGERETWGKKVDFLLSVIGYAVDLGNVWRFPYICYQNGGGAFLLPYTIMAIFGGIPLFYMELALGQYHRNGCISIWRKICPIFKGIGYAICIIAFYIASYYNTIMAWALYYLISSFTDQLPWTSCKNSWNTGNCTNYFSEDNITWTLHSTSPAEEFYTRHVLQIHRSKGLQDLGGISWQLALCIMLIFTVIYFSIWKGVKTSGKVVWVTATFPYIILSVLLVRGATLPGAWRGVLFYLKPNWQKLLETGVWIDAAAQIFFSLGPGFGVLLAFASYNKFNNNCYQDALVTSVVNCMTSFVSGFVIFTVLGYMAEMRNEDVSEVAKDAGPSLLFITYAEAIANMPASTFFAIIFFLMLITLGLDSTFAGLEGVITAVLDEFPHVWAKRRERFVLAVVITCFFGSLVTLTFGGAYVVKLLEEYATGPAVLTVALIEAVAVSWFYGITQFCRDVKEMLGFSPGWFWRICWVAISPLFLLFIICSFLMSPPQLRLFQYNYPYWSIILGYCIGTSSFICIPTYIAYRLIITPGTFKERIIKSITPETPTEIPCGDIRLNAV

The term IC50 denotes the concentration that inhibits the measured activity by half. Low values mean greater potency, high ones weaker potency. Compound `COc1ccc([C@@]23CCC(C)=C[C@@H]2N(C)CC3)cc1OC` [drawing 205] came in with an IC50 on SERT of less than 0.05 µM.

`COc1ccc([C@@]23CCC(C)=C[C@@H]2N(C)CC3)cc1OC` [drawing 204] came in with an IC50 at SERT of less than 0.05 µM.

As to `COc1ccc([C@@]23CC=C(C)C[C@@H]2N(C)CC3)cc1OC` [Compound 242, (3aS,7aS)-3a-(3,4-dimethoxyphenyl)-1,6-dimethyl-2,3,3a,4,7,7a-hexahydro-1H-indole], the IC50 against SERT (Table B1) is less than 0.05 µM.

In general, half-life refers to the time in which the quantity being followed falls by half. High values mean slow decline, low ones rapid decline. On to `COc1ccc([C@@]23CCC(C)=C[C@@H]2N(C)CC3)cc1OC` [Compound 243, (3aS,7aS)-3a-(3,4-dimethoxyphenyl)-1,6-dimethyl-2,3,3a,4,5,7a-hexahydro-1H-indole], for which the “median CLint (micrograms/min/mg protein), times greater for testosterone than Compound 243” value in data set [1] (1 µM) is on record as “about 30 times”. The “median half-life, times greater than the half-life of testosterone” value in data set [1] (Compound 243 versus testosterone) is on record as “about 30 times”. The compound further had a concentration for half-maximal inhibition (IC50) against SERT (Table B1) of less than 0.05 µM. In addition, the “median half-life, times greater than the half-life of midazolam” value in data set [2] is reported as “more than 168 times”. In addition, the “median CLint (micrograms/min/mg protein), times greater for midazolam than Compound 243” value in data set [2] (dog, 1 µM) was “more than 164 times”. The “median half-life, times greater than verapamil” value in data set [3] is 33 times. Moreover, the “median CLint (micrograms/min/mg protein), times greater for verapamil than Compound 243” value in data set [3] (human, 1 µM) was “more than 23 times”. The half-life at 1 µM in data set [3] (human, s9) was more than 24 h.

As to `COc1ccc([C@@]23CC=C(C)C[C@@H]2N(C)CC3)cc1OC` [drawing 203], the IC50 against SERT is less than 0.05 µM.

For `COc1ccc([C@@]23CCC(=O)C[C@@H]2N(C)CC3)cc1OC` [Compound 001, (−)-Mesembrine], in data set [4], the half-life in plasma entry was “less than 2 hours”.
